Source: patent publication US9113629B2, “4-amino-6-(4-substituted-phenyl)-picolinates and 6-amino-2-(4-substituted-phenyl)-pyrimidine-4-carboxylates and their use as herbicides” (DOW AGROSCIENCES LLC, priority 2013, dated 2015)
Like-named read-outs stand apart in the source and are kept apart here.

Key:
[1] = tested on: Key Grass and Sedge Weeds as well as Grass Crops; assay: Post-emergent Test II herbicidal activity (Table 6); format: in vivo; settings: post-emergence, 336 h
Outline: (§1)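 Test species were raised 7–21 d under greenhouse conditions until reaching the first or second true leaf, sprayed with formulated compound at 187 L/ha, and kept subirrigated to avoid wash-off. Fourteen days later, damage was rated visually on a 0–100% scale against untreated plants.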

[2] = tested on: Key Broadleaf Weed and Crop Species; assay: Post-emergent Test II herbicidal activity (Table 5); format: in vivo; settings: post-emergence, 336 h, 14 days after application; for pest or weed control at 70 g/ha: application rate 70 g ai/ha; for pest or weed control at 140 g/ha: application rate 140 g ai/ha
Outline: as §1

[3] = ABUTH: velvetleaf (Abutilon theophrasti), read-out: Visual Growth Reduction (%) 14 Days After Application, ABUTH
[4] = AMARE: redroot pigweed (Amaranthus retroflexus), read-out: Visual Growth Reduction (%) 14 Days After Application, AMARE
[5] = BRSNN: oilseed-rape, canola (Brassica napus), read-out: Visual Growth Reduction (%) 14 Days After Application, BRSNN
[6] = CHEAL: lambsquarters (Chenopodium album), read-out: Visual Growth Reduction (%) 14 Days After Application, CHEAL
[7] = EPHHL: wild poinsettia (Euphorbia heterophylla), read-out: Visual Growth Reduction (%) 14 Days After Application, EPHHL
[8] = HELAN: sunflower (Helianthus annuus), read-out: Visual Growth Reduction (%) 14 Days After Application, HELAN
[9] = VIOTR: wild pansy (Viola tricolor), read-out: Visual Growth Reduction (%) 14 Days After Application, VIOTR

Nc1c(F)c(-c2ccc(OC(F)F)c(F)c2F)nc(C(=O)O)c1Cl [Compound 19]
0 to 29%: pest or weed control at 70 g/ha ([1]; Triticum aestivum, TRZSS (wheat), application rate 70 g ai/ha, read-out: Visual Growth Reduction (%) 14 Days After Application, TRZSS) | pest or weed control at 140 g/ha ([1]; Triticum aestivum, TRZSS (wheat), application rate 140 g ai/ha, read-out: Visual Growth Reduction (%) 14 Days After Application, TRZSS) | pest or weed control at 70 g/ha ([1]; CYPES: yellow nutsedge (Cyperus esculentus), application rate 70 g ai/ha, read-out: Visual Growth Reduction (%) 14 Days After Application, CYPES) | pest or weed control at 140 g/ha ([1]; CYPES: yellow nutsedge (Cyperus esculentus), application rate 140 g ai/ha, read-out: Visual Growth Reduction (%) 14 Days After Application, CYPES) | pest or weed control at 70 g/ha ([1]; DIGSA: crabgrass (Digitaria sanguinalis), application rate 70 g ai/ha, read-out: Visual Growth Reduction (%) 14 Days After Application, DIGSA) | pest or weed control at 140 g/ha ([1]; DIGSA: crabgrass (Digitaria sanguinalis), application rate 140 g ai/ha, read-out: Visual Growth Reduction (%) 14 Days After Application, DIGSA) | pest or weed control at 70 g/ha ([1]; ECHCG: barnyardgrass (Echinochloa crus-galli), application rate 70 g ai/ha, read-out: Visual Growth Reduction (%) 14 Days After Application, ECHCG) | pest or weed control at 140 g/ha ([1]; ECHCG: barnyardgrass (Echinochloa crus-galli), application rate 140 g ai/ha, read-out: Visual Growth Reduction (%) 14 Days After Application, ECHCG) | pest or weed control at 70 g/ha ([1]; ORYSA: rice (Oryza sativa), application rate 70 g ai/ha, read-out: Visual Growth Reduction (%) 14 Days After Application, ORYSA) | pest or weed control at 140 g/ha ([1]; ORYSA: rice (Oryza sativa), application rate 140 g ai/ha, read-out: Visual Growth Reduction (%) 14 Days After Application, ORYSA) | pest or weed control at 70 g/ha ([1]; SETFA: giant foxtail (Setaria faberi), application rate 70 g ai/ha, read-out: Visual Growth Reduction (%) 14 Days After Application, SETFA) | pest or weed control at 140 g/ha ([1]; SETFA: giant foxtail (Setaria faberi), application rate 140 g ai/ha, read-out: Visual Growth Reduction (%) 14 Days After Application, SETFA) | pest or weed control at 70 g/ha ([1]; SORVU: grain sorghum (Sorghum vulgare), application rate 70 g ai/ha, read-out: Visual Growth Reduction (%) 14 Days After Application, SORVU) | pest or weed control at 140 g/ha ([1]; SORVU: grain sorghum (Sorghum vulgare), application rate 140 g ai/ha, read-out: Visual Growth Reduction (%) 14 Days After Application, SORVU) | pest or weed control at 70 g/ha ([1]; ZEAMX: maize, corn (Zea mays), application rate 70 g ai/ha, read-out: Visual Growth Reduction (%) 14 Days After Application, ZEAMX) | pest or weed control at 140 g/ha ([1]; ZEAMX: maize, corn (Zea mays), application rate 140 g ai/ha, read-out: Visual Growth Reduction (%) 14 Days After Application, ZEAMX) | pest or weed control at 70 g/ha [2, 3] | pest or weed control at 140 g/ha [2, 3] | pest or weed control at 70 g/ha [2, 4] | pest or weed control at 140 g/ha [2, 4] | pest or weed control at 70 g/ha [2, 5] | pest or weed control at 70 g/ha [2, 6] | pest or weed control at 140 g/ha [2, 6] | pest or weed control at 70 g/ha [2, 7] | pest or weed control at 70 g/ha [2, 9] | pest or weed control at 140 g/ha [2, 9]
60 to 74%: pest or weed control at 140 g/ha [2, 5]
113 to 115 °C: melting point
30 to 44%: pest or weed control at 140 g/ha [2, 7]
75 to 84%: pest or weed control at 70 g/ha [2, 8] | pest or weed control at 140 g/ha [2, 8]

Nc1c(F)c(-c2ccc(Br)c(F)c2)nc(C(=O)O)c1Cl [Compound 21]
0 to 29%: pest or weed control at 70 g/ha ([1]; ORYSA: rice (Oryza sativa), crop, 70 g ai/ha, read-out: Visual Growth Reduction (%) 14 Days After Application, ORYSA) | pest or weed control at 140 g/ha ([1]; ORYSA: rice (Oryza sativa), crop, 140 g ai/ha, read-out: Visual Growth Reduction (%) 14 Days After Application, ORYSA)
95 to 100%: pest or weed control at 70 g/ha ([1]; CYPES: yellow nutsedge (Cyperus esculentus), 70 g ai/ha, read-out: Visual Growth Reduction (%) 14 Days After Application, CYPES) | pest or weed control at 140 g/ha ([1]; CYPES: yellow nutsedge (Cyperus esculentus), 140 g ai/ha, read-out: Visual Growth Reduction (%) 14 Days After Application, CYPES) | pest or weed control at 70 g/ha ([1]; ECHCG: barnyardgrass (Echinochloa crus-galli), 70 g ai/ha, read-out: Visual Growth Reduction (%) 14 Days After Application, ECHCG) | pest or weed control at 140 g/ha ([1]; ECHCG: barnyardgrass (Echinochloa crus-galli), 140 g ai/ha, read-out: Visual Growth Reduction (%) 14 Days After Application, ECHCG) | pest or weed control at 70 g/ha ([1]; SETFA: giant foxtail (Setaria faberi), 70 g ai/ha, read-out: Visual Growth Reduction (%) 14 Days After Application, SETFA) | pest or weed control at 140 g/ha ([1]; SETFA: giant foxtail (Setaria faberi), 140 g ai/ha, read-out: Visual Growth Reduction (%) 14 Days After Application, SETFA) | pest or weed control at 70 g/ha ([1]; SORVU: grain sorghum (Sorghum vulgare), 70 g ai/ha, read-out: Visual Growth Reduction (%) 14 Days After Application, SORVU) | pest or weed control at 140 g/ha ([1]; SORVU: grain sorghum (Sorghum vulgare), 140 g ai/ha, read-out: Visual Growth Reduction (%) 14 Days After Application, SORVU) | pest or weed control at 70 g/ha ([1]; ZEAMX: maize, corn (Zea mays), crop, 70 g ai/ha, read-out: Visual Growth Reduction (%) 14 Days After Application, ZEAMX) | pest or weed control at 140 g/ha ([1]; ZEAMX: maize, corn (Zea mays), crop, 140 g ai/ha, read-out: Visual Growth Reduction (%) 14 Days After Application, ZEAMX) | pest or weed control at 70 g/ha [2, 3] | pest or weed control at 140 g/ha [2, 3] | pest or weed control at 70 g/ha [2, 4] | pest or weed control at 140 g/ha [2, 4] | pest or weed control at 70 g/ha [2, 5] | pest or weed control at 140 g/ha [2, 5] | pest or weed control at 70 g/ha [2, 6] | pest or weed control at 140 g/ha [2, 6] | pest or weed control at 70 g/ha [2, 7] | pest or weed control at 140 g/ha [2, 7] | pest or weed control at 70 g/ha [2, 8] | pest or weed control at 140 g/ha [2, 8] | pest or weed control at 70 g/ha [2, 9] | pest or weed control at 140 g/ha [2, 9]
75 to 84%: pest or weed control at 70 g/ha ([1]; DIGSA: crabgrass (Digitaria sanguinalis), 70 g ai/ha, read-out: Visual Growth Reduction (%) 14 Days After Application, DIGSA) | pest or weed control at 140 g/ha ([1]; DIGSA: crabgrass (Digitaria sanguinalis), 140 g ai/ha, read-out: Visual Growth Reduction (%) 14 Days After Application, DIGSA)
117 to 120 °C: melting point
60 to 74%: pest or weed control at 70 g/ha ([1]; TRZSS (wheat, Triticum aestivum), crop, 70 g ai/ha, read-out: Visual Growth Reduction (%) 14 Days After Application, TRZSS) | pest or weed control at 140 g/ha ([1]; TRZSS (wheat, Triticum aestivum), crop, 140 g ai/ha, read-out: Visual Growth Reduction (%) 14 Days After Application, TRZSS)
